Source: ChEMBL document CHEMBL6115034, “Pseudonatural Flavonols as Novel Copper Ionophores for NAFLD Intervention via Synergistic Copper Delivery and Flavonoid Activity” (J Med Chem, 2025)
Active and inactive are the calls of the source. No cut-off for these calls is given here.

Tests used:
[1] = Stability of the compound in cell culture medium containing 10% fetal bovine serum in presence of EDTA by UV-Vis spectrophotometer analysis; type: physicochemical, cell-free; conditions: cattle
HepG2 [2] = assay: Anti-NAFLD activity in palmitic acid human HepG2 NAFLD cell model assessed as downregulation of IL6 expression at 0.5 uM incubated for 24 hrs in presence of CuCl2 by mRNA sequencing analysis; type: functional, cell-based
HepG2 [3] = assay: Anti-NAFLD activity in palmitic acid human HepG2 NAFLD cell model assessed as upregulation of CYP4F12 expression at 0.5 uM incubated for 24 hrs in presence of CuCl2 by mRNA sequencing analysis; type: functional, cell-based
[4] = Stability of compound in PBS buffer in presence of histidine by UV-Vis spectrophotometer analysis; type: physicochemical
Mus musculus [5] = assay: Anti-NAFLD activity in high-fat diet-induced male C57BL/6J mouse model assessed as increase in X5P level in liver at 125 mg/kg, po compound administrated as copper complex measured for 10 weeks by LC-MS/MS analysis; type: functional, organism-based
HepG2 [6] = assay: Anti-NAFLD activity in palmitic acid human HepG2 NAFLD cell model assessed as upregulation of POR expression at 0.5 uM incubated for 24 hrs in presence of CuCl2 by mRNA sequencing analysis; type: functional, cell-based
HepG2 [7] = assay: Anti-NAFLD activity in palmitic acid human HepG2 NAFLD cell model assessed as effect on IL6 expression at 0.5 uM incubated for 24 hrs in presence of CuCl2 by mRNA sequencing analysis; type: functional, cell-based
HepG2 [8] = assay: Anti-NAFLD activity in palmitic acid human HepG2 NAFLD cell model assessed as upregulation of NQO1 expression at 0.5 uM incubated for 24 hrs in presence of CuCl2 by mRNA sequencing analysis; type: functional, cell-based
[9] = Toxicity in male C57BL/6 mouse assessed as heart lesion at 125 mg/kg, po compound administrated as copper complex measured for 10 weeks; type: organism-based; conditions: in vivo, 1680 h
HepG2 [10] = assay: Anti-NAFLD activity in palmitic acid human HepG2 NAFLD cell model assessed as upregulation of PRDX1 expression at 0.5 uM incubated for 24 hrs in presence of CuCl2 by mRNA sequencing analysis; type: functional, cell-based
HepG2 [11] = assay: Anti-NAFLD activity in palmitic acid human HepG2 NAFLD cell model assessed as cell viability at 0.1 to 0.5 uM compound administrated as copper complex measured at 24 hrs by MTT assay; type: functional, cell-based; conditions: dose 0.1-0.5 µM
[12] = Toxicity in male C57BL/6 mouse assessed as change in body weight at 125 mg/kg, po compound administrated as copper complex measured for 10 weeks; type: organism-based; conditions: in vivo, 1680 h
Mus musculus [13] = assay: Anti-NAFLD activity in high-fat diet-induced male C57BL/6J mouse model assessed as increase in liver weight at 125 mg/kg, po compound administrated as copper complex measured for 10 weeks […]; type: functional, organism-based
HepG2 [14] = assay: Anti-NAFLD activity in palmitic acid human HepG2 NAFLD cell model assessed as upregulation of CYP4F11 expression at 0.5 uM incubated for 24 hrs in presence of CuCl2 by mRNA sequencing analysis; type: functional, cell-based
Mus musculus [15] = assay: Anti-NAFLD activity in high-fat diet-induced male C57BL/6J mouse model assessed as increase in lipid droplets accumulation in liver at 125 mg/kg, po compound administrated as copper complex measured for 10 weeks by oil red O staining based analysis; type: functional, organism-based
HepG2 [16] = assay: Anti-NAFLD activity in palmitic acid human HepG2 NAFLD cell model assessed as upregulation of CAT expression at 0.5 uM incubated for 24 hrs in presence of CuCl2 by mRNA sequencing analysis; type: functional, cell-based
[17] = Photophysical property of the compound assessed as fluorescence quantum yield; type: physicochemical
HepG2 [18] = assay: Anti-NAFLD activity in palmitic acid human HepG2 NAFLD cell model assessed as effect on CYP4F11 expression at 0.5 uM incubated for 24 hrs in presence of CuCl2 by mRNA sequencing analysis; type: functional, cell-based
Hepatocyte [19] = assay: Cytotoxicity against mouse Hepatocyte assessed as cell viability at 0.1 to 5 uM compound administrated as copper complex measured at 24 hrs by MTT assay; type: toxicity, cell-based; conditions: hepatocytes, dose 0.1-5 µM
Hepatocyte [20] = assay: Cytotoxicity against mouse Hepatocyte assessed as cell viability at 0.1 to 5 uM measured at 24 hrs by MTT assay; type: toxicity, cell-based; conditions: hepatocytes, dose 0.1-5 µM
HepG2 [21] = assay: Cytotoxicity against human HepG2 cells assessed as cell viability at 0.1 to 5 uM compound administrated as copper complex measured at 24 hrs by MTT assay; type: functional, cell-based; conditions: dose 0.1-5 µM
[22] = Stability of the compound in cell culture medium containing 10% fetal bovine serum in presence of cysteine by UV-Vis spectrophotometer analysis; type: physicochemical, cell-free; conditions: cattle
HepG2 [23] = assay: Anti-NAFLD activity in palmitic acid human HepG2 NAFLD cell model assessed as upregulation of MT1E expression at 0.5 uM incubated for 24 hrs in presence of CuCl2 by mRNA sequencing analysis; type: functional, cell-based
[24] = Toxicity in male C57BL/6 mouse assessed as kidney lesion at 125 mg/kg, po compound administrated as copper complex measured for 10 weeks; type: organism-based; conditions: in vivo, 1680 h
HepG2 [25] = assay: Cytotoxicity against human HepG2 cells assessed as cell viability at 0.1 to 5 uM measured at 24 hrs by MTT assay; type: functional, cell-based; conditions: dose 0.1-5 µM
[26] = Toxicity in male C57BL/6 mouse assessed as lung lesion at 125 mg/kg, po compound administrated as copper complex measured for 10 weeks; type: organism-based; conditions: in vivo, 1680 h
Mus musculus [27] = assay: Anti-NAFLD activity in high-fat diet-induced male C57BL/6J mouse model assessed as increase in lipid droplets accumulation in liver at 125 mg/kg, po compound administrated as copper complex measured for 10 weeks by H and E staining based analysis; type: functional, organism-based
Mus musculus [28] = assay: Anti-NAFLD activity in high-fat diet-induced male C57BL/6J mouse model assessed as reduction in serum NEFA level at 125 mg/kg, po compound administrated as copper complex measured for 10 weeks; type: functional; design: scale not given: the % may be the effect or the level left
Mus musculus [29] = assay: Anti-NAFLD activity in high-fat diet-induced male C57BL/6J mouse model assessed as increase in lactate level at 125 mg/kg, po compound administrated as copper complex measured for 10 weeks by LC-MS/MS analysis; type: functional, organism-based
HeLa = assay: Induction of copper transporting activity in human HeLa cells assessed as increase in intracellular copper levels at 0.02 to 20 uM by ICP-MS analysis; type: functional, cell-based; conditions: dose 0.02-20 µM, time <= 24.0 hrs
HepG2 [30] = assay: Anti-NAFLD activity in palmitic acid human HepG2 NAFLD cell model assessed as increase in lipid droplet level at 5 uM compound administrated as copper complex measured at 24 hrs by Oil Red O staining based assay relative to control; type: functional
Mus musculus [31] = assay: Anti-NAFLD activity in high-fat diet-induced male C57BL/6J mouse model assessed as reduction in IL-6 level in liver at 125 mg/kg, po compound administrated as copper complex measured for 10 weeks; type: functional, organism-based
HepG2 [32] = assay: Anti-NAFLD activity in palmitic acid human HepG2 NAFLD cell model assessed as effect on SLC48A1 expression at 0.5 uM incubated for 24 hrs in presence of CuCl2 by mRNA sequencing analysis; type: functional, cell-based

With `O=c1c(O)c(-c2ccc3cccc(O)c3n2)oc2ccccc12` the Stability [1] was “Stable”, the Activity (HepG2 [2]) was “Active” and the Activity (HepG2 [3]) was “Active”. The Stability [4] was “Stable”, the Activity (Mus musculus [5]) was “Active” and the Activity (HepG2 [6]) was “Active”. The Activity (HepG2 [7]) was “Active”, the Activity (HepG2 [8]) was “Active” and the Activity [9] was “Non-toxic”. The Activity (HepG2 [10]) was “Active”, the Activity (HepG2 [11]) was “Active” and the Activity [12] was “Non-toxic”. For the same molecule, the Activity (Mus musculus [13]) was “Active”, the Activity (HepG2 [14]) was “Active” and the Activity (Mus musculus [15]) was “Active”. The Activity (HepG2 [16]) was “Active”, the Activity [17] was 0.199 and the Activity (HepG2 [18]) was “Active”. The Activity (Hepatocyte [19]) was “Non-toxic”, the Activity (Hepatocyte [20]) was “Non-toxic” and the Activity (HepG2 [21]) was “Active”. The Stability [22] was “Stable”, the Activity (HepG2 [23]) was “Active” and the Activity [24] was “Non-toxic”. The Activity (HepG2 [25]) was “Active”, the Activity [26] was “Non-toxic” and the Activity (Mus musculus [27]) was “Active”. The Activity (Mus musculus [28]) was 52%, the Activity (Mus musculus [29]) was “Active” and the Activity (HeLa) was “Time-dependent-effect”. The Activity (HepG2 [30]) was 31%, the Activity (Mus musculus [31]) was “Active” and the Activity (HepG2 [32]) was “Active”.
